This is an account of results in PMC2934701 (The Journal of Biological Chemistry, 2010).

Changes are numbered by the printed parent chain. Where only a bound is given, the exact number is not on record here.

By EC50 is commonly meant the concentration that produces a half-maximal response.

Holding throughout (test): Fluo-4 calcium assay, HEK293T + Galpha16gust44
What all share (format): cell-based

The target of test [1] is T1, hTAS2R16 (ssr3-hTAS2R16) (Homo sapiens, UniProt Q9NYV7, F240L).
T1 sequence (Q9NYV7 1-291 F240L): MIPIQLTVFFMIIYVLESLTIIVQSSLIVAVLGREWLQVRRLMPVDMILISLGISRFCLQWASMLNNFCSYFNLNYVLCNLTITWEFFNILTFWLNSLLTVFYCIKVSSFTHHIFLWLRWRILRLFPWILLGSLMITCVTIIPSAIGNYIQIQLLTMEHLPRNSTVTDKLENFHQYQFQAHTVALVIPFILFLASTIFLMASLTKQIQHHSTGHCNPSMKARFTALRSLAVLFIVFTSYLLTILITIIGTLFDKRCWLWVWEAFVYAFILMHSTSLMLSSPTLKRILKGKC

In test [2] the target is T2, hTAS2R16 (ssr3-hTAS2R16) (Homo sapiens, UniProt Q9NYV7, E86Q).
T2 sequence (Q9NYV7 1-291 E86Q): T1 sequence (Q9NYV7 1-291 F240L) with E86Q, L240F

The target of test [3] is T3, hTAS2R16 (ssr3-hTAS2R16) (Homo sapiens, UniProt Q9NYV7, F93Y).
T3 sequence (Q9NYV7 1-291 F93Y): T1 sequence (Q9NYV7 1-291 F240L) with F93Y, L240F

Test [4] has as its target T4, hTAS2R16 (ssr3-hTAS2R16) (Homo sapiens, UniProt Q9NYV7, Q177E).
T4 sequence (Q9NYV7 1-291 Q177E): T1 sequence (Q9NYV7 1-291 F240L) with Q177E, L240F

Test [5] addresses T5, hTAS2R16 (ssr3-hTAS2R16) (Homo sapiens, UniProt Q9NYV7, I243A).
T5 sequence (Q9NYV7 1-291 I243A): T1 sequence (Q9NYV7 1-291 F240L) with L240F, I243A

Test [6] addresses T6, hTAS2R16 (ssr3-hTAS2R16) (Homo sapiens, UniProt Q9NYV7, H181L).
T6 sequence (Q9NYV7 1-291 H181L): T1 sequence (Q9NYV7 1-291 F240L) with H181L, L240F

In test [7] the target is T7, hTAS2R16 (ssr3-hTAS2R16) (Homo sapiens, UniProt Q9NYV7, F240W).
T7 sequence (Q9NYV7 1-291 F240W): T1 sequence (Q9NYV7 1-291 F240L) with L240W

Test [8] has as its target T8, hTAS2R16 (ssr3-hTAS2R16) (Homo sapiens, UniProt Q9NYV7, Q177N).
T8 sequence (Q9NYV7 1-291 Q177N): T1 sequence (Q9NYV7 1-291 F240L) with Q177N, L240F

As to `OCc1ccccc1O[C@@H]1O[C@H](CO)[C@@H](O)[C@H](O)[C@H]1O` [salicin], the EC50 at hTAS2R16 (ssr3-hTAS2R16) [1] is greater than 30000 µM; at hTAS2R16 (ssr3-hTAS2R16) [2] it was 1250 µM; at hTAS2R16 (ssr3-hTAS2R16) [3], 10000 µM; on hTAS2R16 (ssr3-hTAS2R16) [4] it was 220 µM; on hTAS2R16 (ssr3-hTAS2R16) [5] it was greater than 30000 µM; at hTAS2R16 (ssr3-hTAS2R16) [6] it was 12900 µM. Moreover, the figures for the EC50 at hTAS2R16 (ssr3-hTAS2R16) [7] and on hTAS2R16 (ssr3-hTAS2R16) [8] were 2050 µM and 390 µM, respectively.
